Experiments:
S. aureus FtsZ [1] = target: T1, S. aureus FtsZ (Staphylococcus aureus, UniProt P0A031); assay: Light scattering assay of FtsZ polymerization; format: biochemical; settings: for inhibition of polymerization in the presence of Triton X-100: 0.01% Triton X-100, berberine 200 and 500 µM, compound 2 10 and 25 µM
T1 construct: made in house; host or cells: E. coli BL21(DE3)
T1 sequence (P0A031 1-390): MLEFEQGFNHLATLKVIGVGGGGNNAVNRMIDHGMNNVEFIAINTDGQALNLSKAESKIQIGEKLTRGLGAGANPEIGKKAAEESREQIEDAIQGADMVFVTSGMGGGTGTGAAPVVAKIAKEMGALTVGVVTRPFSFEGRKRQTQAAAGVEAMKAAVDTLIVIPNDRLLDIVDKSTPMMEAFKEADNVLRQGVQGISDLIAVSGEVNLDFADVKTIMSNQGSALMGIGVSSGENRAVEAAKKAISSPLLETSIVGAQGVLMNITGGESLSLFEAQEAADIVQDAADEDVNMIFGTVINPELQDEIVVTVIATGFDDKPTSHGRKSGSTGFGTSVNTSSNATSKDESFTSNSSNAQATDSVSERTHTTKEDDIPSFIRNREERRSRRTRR
Protocol: (§1) E. coli BL21(DE3) cells were transformed with the pRSET-A-S vector carrying S. aureus FtsZ with a 6-histidine tag attached at its N-terminus under the control of a T7 promoter. […] When the OD600 reached 0.8, protein expression was induced with 0.4 mM isopropyl-β-D-thiogalactopyranoside (IPTG) for 4 h. Cells were harvested by centrifugation at 9000 rpm for 20 min at 4°C. The cell pellet was resuspended in 20 mL of solubilization buffer (50 mM Tris-HCl, 150 mM NaCl, 1 mM PMSF and 1 mM EDTA, pH 7.4) and then lysed with 1 mg/mL of lysozyme. The mixture was incubated for 1 h on ice. The cells were disrupted by sonication and the crude lysate obtained was centrifuged at 13,000 rpm for 1 h at 4°C. The supernatant containing 6-histidine tagged S. aureus FtsZ was collected and loaded onto a nickel charged HiTrap chelating column pre-equilibrated with starting buffer (20 mM sodium phosphate buffer, 0.5 M NaCl, pH 7.4). The column was then washed with 8 column volumes of the starting buffer to remove the unbound proteins, and the histidine-tagged enzyme was eluted by a linear gradient of 0−0.2 M imidazole. Fractions containing S. aureus FtsZ were pooled, buffer-exchanged with 20 mM NH4HCO3 (pH 8.0) at 4°C, lyophilized, and stored at −20°C. A stock solution of S. aureus FtsZ for the subsequent bioassay was prepared from the lyophilized powder.
The light scattering assay was performed using a protocol adapted from the literature. The polymerization and depolymerization of recombinant S. aureus FtsZ was measured using 90° light scattering in a thermostatically (37°C) controlled fluorescence spectrometer (Perkin Elmer, USA). Both excitation and emission wavelengths were set to 600 nm with a slit width of 2.5 nm. S. aureus FtsZ (6 µM) in 50 mM of MOPS buffer (pH 6.5) was incubated with vehicle (1% DMSO) or different concentrations of the test compound for 10 min at 25°C. 50 mM KCl and 10 mM MgCl2 were then added to establish a baseline. After 8 min, a final concentration of 1 mM GTP was added at the last fraction and the increase in light scattering was measured for an additional 2000s. The rate and extent of polymerization were measured. Appropriate blanks were subtracted from all experimental data. Moreover, in order to rule out unselective inhibition by formation of aggregates, control experiments with 0.01% (v/v) Triton X-100 from a freshly prepared 1% (v/v) stock solution were performed for berberine and compound 2 [40], [41]. Reported results are the average of three independent experiments.

S. aureus FtsZ [2] = target: T1, S. aureus FtsZ; assay: Transmission electron microscopy of FtsZ polymers; format: biochemical; settings: FtsZ 12 µM, TEM
Protocol: as §1, with “powder. […]” for “powder.”

[3] = test system: Gram-positive bacteria, including methicillin-resistant S. aureus and vancomycin-resistant E. faecium; assay: Antimicrobial susceptibility assay, summary over Gram-positive bacteria; format: cell-based; settings: Staphylococcus aureus; Gram-positive bacteria incl. MRSA and VREF
From the text: The bacterial strains S. aureus ATCC 29213, S. aureus ATCC 29247, S. aureus ATCC BAA-41, E. faecium ATCC 49624, E. faecium ATCC 700221, E. faecalis ATCC 29212, S. epidermidis ATCC 12228, E. coli ATCC 25922, and K. pneumoniae ATCC BAA-1144 used in the antimicrobial susceptibility assays were purchased from American Type Culture Collection (ATCC, USA). B. subtilis strain 168 was already available in our in-house collection. E. coli JM109 WM647 was kindly provided by Dr. W. Margolin (University of Texas-Houston Medical School). FM 4–64 was purchased from Invitrogen (Eugene, Oregon). All other chemicals and reagents were purchased from Sigma-Aldrich. Stock solutions were prepared in DMSO. The final percentage of DMSO in the assays was 1% (v/v) for all experiments.
Antimicrobial susceptibility tests were conducted in 96-well microplates using the broth microdilution procedure described in the Clinical and Laboratory Standards Institute (CLSI) guidelines. […] After incubation for 18 h at 37°C, the absorbance at 600 nm (A600) was recorded using a microplate reader (Bio-Rad laboratory Ltd., UK) and the percentage of bacterial cell inhibition with respect to vehicles (1% DMSO) was calculated. […]

[4] = test system: GFP-tagged FtsZ in E. coli JM109 WM647; assay: Z-ring visualization in E. coli cells; format: cell-based; settings: 48 µM compound, 4 h at 37°C
Protocol: A culture of E. coli JM109 WM647 containing the IPTG-inducible plasmid for the overexpression of green fluorescence protein (GFP)-tagged FtsZ was grown in LB medium supplemented with 30 µg/mL of chloramphenicol. After overnight incubation, a sample of the culture was diluted to 1% in the LB medium containing different concentrations of the test compound and 40 µM of IPTG. After 4 h incubation at 37°C, the E. coli cells were fixed, harvested and resuspended in PBS buffer containing 0.25% of agarose. 10 µL of sample mixture were added to a pretreated microscopic slide with 0.1% (w/v) poly-L-lysine and visualized using a fluorescence microscope at 60× oil immersion magnification with a standard FITC filter set. The images were captured using an Olympus Bio Imaging Navigator FSX 100 microscope.

Row | SMILES | inhibition at 200 µM (S. aureus FtsZ [1]; 200 µM compound, FtsZ 6 µM, 1 mM GTP, light scattering) [%] | inhibition of polymerization in the presence of Triton X-100 (S. aureus FtsZ [1]) | reduction of the thickness of the bundles of FtsZ protofilaments (S. aureus FtsZ [2]; 8.8 µM compound) [%] | reduction of the thickness of the bundles of FtsZ protofilaments (S. aureus FtsZ [2]; 4 µM compound) [%] | MIC [3] [µg/mL] | inhibition of S. aureus FtsZ polymerization at increasing concentrations (S. aureus FtsZ [1]; 10 µM, 25 µM and 50 µM compound) | inhibition at 50 µM (S. aureus FtsZ [1]; 50 µM compound, FtsZ 6 µM, 1 mM GTP, light scattering) [%] | Z-ring formation / localization of GFP-tagged FtsZ [4]
1 | COc1ccc2cc3[n+](cc2c1OC)CCc1cc2c(cc1-3)OCO2 [Berberine, Berberine chloride] | ~30 | maintained | – | – | – | – | – | –
2 | COc1ccc2cc3[n+](cc2c1OCCCOc1ccccc1)CCc1cc2c(cc1-3)OCO2 [Compound 1] | – | – | 60 | – | – | – | – | –
3 | COc1ccc2cc3[n+](cc2c1OCCCOc1ccc(Cl)cc1)CCc1cc2c(cc1-3)OCO2 [Compound 2] | – | maintained | – | 70 | 2 to 4 | strongly inhibited the S. aureus FtsZ polymerization in a dose-dependent manner | ~70 | caused mislocalization of the FtsZ protein
